Experiments:
[1] = molecular target: Soluble acetylcholine receptor (Aplysia californica, UniProt Q8WSF8, Y55W); assay: Binding affinity to salt water mollusc Aplysia californica AChBP Y55W mutant assessed as [3H]acetamiprid binding by radioligand binding assay
[2] = molecular target: Neuronal acetylcholine receptor subunit alpha-4 (Gallus gallus, UniProt P09482+P09484); assay: Binding affinity to recombinant Gallus gallus (chicken) alpha4beta2 nicotinic acetylcholine receptor assessed as [3H]NIC binding by radioligand binding assay
Sequence of Neuronal acetylcholine receptor subunit alpha-4 (P09482 whole entry, one chain of several): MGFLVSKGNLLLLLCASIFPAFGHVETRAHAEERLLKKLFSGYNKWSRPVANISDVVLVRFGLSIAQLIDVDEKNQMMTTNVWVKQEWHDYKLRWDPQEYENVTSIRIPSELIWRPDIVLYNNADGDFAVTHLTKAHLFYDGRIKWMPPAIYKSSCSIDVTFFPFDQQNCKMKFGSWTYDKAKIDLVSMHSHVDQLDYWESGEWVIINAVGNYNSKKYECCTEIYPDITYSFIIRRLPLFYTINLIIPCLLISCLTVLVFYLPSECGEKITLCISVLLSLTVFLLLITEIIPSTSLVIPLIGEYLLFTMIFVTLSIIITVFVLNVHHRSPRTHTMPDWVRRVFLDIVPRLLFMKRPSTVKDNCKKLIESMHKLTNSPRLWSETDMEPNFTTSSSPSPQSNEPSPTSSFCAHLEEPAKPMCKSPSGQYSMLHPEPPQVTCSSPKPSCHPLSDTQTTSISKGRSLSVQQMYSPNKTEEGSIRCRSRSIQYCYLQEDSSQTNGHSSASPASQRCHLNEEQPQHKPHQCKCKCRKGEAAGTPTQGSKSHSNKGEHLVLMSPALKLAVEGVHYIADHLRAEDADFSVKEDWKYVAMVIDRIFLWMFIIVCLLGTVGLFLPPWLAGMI

[3] = molecular target: T1, Acetylcholine receptor subunit beta-like 2 (Drosophila melanogaster, UniProt P25162); assay: Binding affinity to Drosophila brain nicotinic acetylcholine receptor assessed as [3H]IMI binding by radioligand binding assay
T1 sequence (P25162 whole entry): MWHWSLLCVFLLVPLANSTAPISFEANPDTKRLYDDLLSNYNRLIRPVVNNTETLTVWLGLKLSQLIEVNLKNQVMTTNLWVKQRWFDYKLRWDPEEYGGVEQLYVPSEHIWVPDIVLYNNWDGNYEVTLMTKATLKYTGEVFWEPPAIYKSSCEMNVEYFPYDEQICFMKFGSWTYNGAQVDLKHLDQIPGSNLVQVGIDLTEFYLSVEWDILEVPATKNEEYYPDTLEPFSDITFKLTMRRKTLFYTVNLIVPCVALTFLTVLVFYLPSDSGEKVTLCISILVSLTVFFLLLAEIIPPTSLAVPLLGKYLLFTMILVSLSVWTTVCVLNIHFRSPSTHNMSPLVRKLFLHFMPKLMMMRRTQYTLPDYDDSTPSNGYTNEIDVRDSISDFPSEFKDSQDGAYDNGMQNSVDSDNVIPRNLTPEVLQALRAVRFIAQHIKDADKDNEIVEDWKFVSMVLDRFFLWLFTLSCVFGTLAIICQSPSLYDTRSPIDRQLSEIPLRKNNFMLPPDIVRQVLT

[4] = molecular target: Acetylcholine-binding protein (Lymnaea stagnalis, UniProt P58154); assay: Binding affinity to freshwater snail Lymnaea stagnalis AChBP assessed as [3H]EPI binding by radioligand binding assay
Sequence of Acetylcholine-binding protein (P58154 whole entry): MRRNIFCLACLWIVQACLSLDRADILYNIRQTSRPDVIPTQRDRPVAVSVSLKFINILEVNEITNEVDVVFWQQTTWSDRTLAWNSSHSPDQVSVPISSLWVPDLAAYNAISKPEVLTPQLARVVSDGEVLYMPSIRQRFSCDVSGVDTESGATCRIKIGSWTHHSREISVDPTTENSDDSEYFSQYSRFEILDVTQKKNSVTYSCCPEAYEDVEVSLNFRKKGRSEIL

| Structure (SMILES) | Ki [1] [nM] | Ki [2] [nM] | Ki [3] [nM] | Ki [4] [nM] |
| --- | --- | --- | --- | --- |
| N#C/N=C1\SCCN1Cc1ccc(Cl)nc1 [THIACLOPRID] | 3.9 | 240 | 1.2 |  |
| O=[N+]([O-])NC1=NCCN1Cc1ccc(Cl)nc1 [IMIDACLOPRID] | 19 | 970 | 3 |  |
| N=C1NCCN1Cc1ccc(Cl)nc1 [DESNITROIMIDACLOPRID] | 15 | 2.2 | 1000 | 18 |
| Clc1ccc(C2CC3CCC2N3)cn1 (racemic) [EPIBATIDINE] | 1 |  | 290 | 0.3 |
| C/C(=N\C#N)N(C)Cc1ccc(Cl)nc1 | 32 | 680 | 7.2 | 1200 |
| O=[N+]([O-])/C=C1\NCCN1Cc1ccc(Cl)nc1 | 1.7 | 60 | 0.12 |  |
| CN1CCC[C@H]1c1cccnc1 [NICOTINE] | 30 | 1.9 | 2700 |  |
| N=C1SCCN1Cc1ccc(Cl)nc1 [DESCYANOTHIACLOPRID] | 0.6 | 1.2 | 130 | 16 |
